Source: US8552035B2, “Phenanthrenone compounds, compositions and methods” (Pfizer Inc., priority 2008, dated 2013)

What was measured:
[1] = system: LPS-induced TNFα; test: 28-day mouse side-effect model, LPS-induced serum TNFα suppression; type: in vivo; conditions: oral gavage 28 days, LPS challenge
Protocol: (§1) 10-12 week old female Swiss Webster mice (Taconic, Germantown, N.Y., U.S.A.) weighing 27-29 grams are used in accordance with the guidelines of the Institutional Animal Care and Use Committee and in accordance with NIH guidelines on laboratory animal welfare. Mice are acclimated to the Pfizer animal facility for 3-7 days prior to being placed on study. Prednisolone and DAGR compounds are administered by oral gavage for a total of 28 days. Each treatment group generally contains 8-10 mice. To establish a dosing regimen for the studies, a pilot pharmacodynamic time course experiment is conducted to quantify TNFa repression after a single ED80 dose (determined from the acute LPS endotoxemia mouse model). […] DAGR compounds vary in their required frequency of doses.
(§2) Body weights are measured on the first and last day of each experiment. Blood samples are obtained after ˜3 weeks of dosing for steady-state pharmacokinetic analysis. To assess compound effects on LPS-induced TNF-a, all mice receive an intraperitoneal injection of LPS (Salmonella Typhosa, Sigma, St. Louis, L-7895) 2.5 hr after the last dose on day 28. Mice are sacrificed 90 min. after LPS administration. Serum samples are assayed for osteocalcin and TNFa using the Linco multiplex assay (St. Charles, Mo.) and Luminex 100 (Austin, Tex.). Samples are diluted 1:20 and the assay is run according to manufacturer's instructions. An osteocalcin standard is purchased separately from Biomedical Technologies Incorporated (Stoughton, Mass.). Serum insulin is measured to assess compound effects on insulin resistance. Insulin was measured using the UltraSensitive Mouse EIA kit from Alpco Diagnostics (Salem, N.H.) following the manufacturer's protocol.
(§3) ED50 and ED80 values are obtained for the various parameters using four-parameter logistic fits of data. For each experiment/dose group, outliers are detected by calculating the number of standard deviations each mouse's value was from the mean of their group and then dividing by the standard deviation of the group. The means and standard deviations used in this calculation omitted the value being examined so that, if it were an outlier, it would have no influence. If the value being examined is more than 2.5 standard deviations from the mean, it was not used in the rest of the calculations.
(§4) Percent inhibition values are then calculated for each animal using the means of the vehicle and 10 mpk prednisone control groups. The individual mouse percent inhibition values are then fit to a four-parameter logistic model using the area under curve mean for each group. Since all four parameters are estimated and the lower plateau is not fixed at 0% and the upper plateau was not fixed at 100%, the ED50 and ED80 values are calculated by using an inverse calibration formula for a response equal to 50% or 80%. The designation “nd” means not determined.

[2] = system: serum insulin; test: 28-day mouse side-effect model, serum insulin; type: in vivo; conditions: oral gavage 28 days
Protocol: as §1, §2, §3, §4

[3] = system: IFNγ; test: LPS-induced human whole blood, IFNγ release; type: cell-based
Protocol: Venous blood from human donors was collected as 10 ml aliquots in tubes containing sodium heparin (BD Vacutainer from Becton Dickinson and Company, Franklin Lakes, N.Y.). Blood was added to sterile polystyrene round bottom 96-well tissue culture plates (Corning Costar) at 180 Blood was placed in a humidified 37 C incubator with 5% CO2 while compounds were prepared (nearly 60 minutes).
Compounds were prepared from 10 mM stock solutions in dimethylsulfoxide (DMSO, Sigma-Aldrich). Stock compound was diluted in DMSO to give appropriate starting concentration then diluted serially 1/3 in DMSO (i.e. 15 μl compound+30 μl DMSO), followed by diluting each serial dilution 1/167 into vehicle solution (2% DMSO in phosphate buffered saline (Dulbecco's Phosphate Buffered Saline without calcium chloride without magnesium chloride, Invitrogen Corporation, Carlsbad Calif.)). Compound or vehicle was added to blood in 10 μl aliquots as triplicates, omitting the outside wells to minimize possible edge effects. The final highest concentration of each compound in the assay ranged from 3 to 0.3 μM. Final DMSO concentration in the assay was 0.1%. The plate containing the samples was gently vortexed to mix and replaced in the incubator. LPS stock (E. coli serotype 0111:B4, Sigma-Aldrich), stored in aliquots of 100 μg/ml in RPMI at −20° C., was diluted […] in RPMI to make a working stock solution. After 60 minutes of incubation, 10 μl of the prepared LPS working stock was added to the blood to a final concentration of 100 ng/ml. Wells to be used as negative control received RPMI media with no LPS. The plate was again gently vortexed and the plates incubated overnight for 22 hours. Following incubation, the blood was centrifuged at 1500×g for 5 minutes and the plasma removed to either freeze at −20° C. or assay for cytokine release.
IL-1β, IFNγ and TNFα protein levels were measured using Meso Scale assay kits (Meso Scale Discovery, Gaithersburg, Md., U.S.A.). Reagents were allowed to come to room temperature. Meso Scale plates were blocked with 150 μl of Meso Scale Block B diluent, gently shaking at room temperature for 60 minutes. Plates were washed 3× with wash buffer (PBS, Invitrogen Corporation, with 0.05% Tween-20, Sigma-Aldrich). Calibrators for standard curves were prepared in human plasma/serum assay diluent as a 1/5 serial dilution to achieve final concentrations ranging from 50000 pg/ml to 3.2 pg/ml. Samples were added at 10 to 20 μl/well and calibrators were added at 20 μl/well then incubated at room temperature with gentle shaking for 2 hours. Plates were again washed 3× with wash buffer. Detection antibody was diluted in human plasma/serum antibody diluent to 1 μg/ml and added to the plate at 20 μl/well. Plates were incubated as before for 2 hours and washed again. Read Buffer T (4×) was diluted 1:1 with mqH20 to 2× concentration and 150 μl added to each well. Plates were read on the SECTOR Imager 6000 (Meso Scale Discovery) to generate raw signal values.
Individual sample signal values were compared to positive and negative controls (vehicle treated blood with LPS and vehicle treated blood without LPS, respectively) to generate % inhibition. Triplicate values were averaged for each donor. The values for three or four donors were averaged and graphed using 4-parameter fit curves in the LabStats plug-in for the Microsoft Excel application.

Cc1ncccc1NC(=O)c1ccc2c(c1)C(=O)C[C@@H]1C[C@@](O)(c3ccccc3)[C@](C)(O)C[C@@]21Cc1ccccc1 [Example 1, (4bR,6R,7R,8aS)-4b-benzyl-6,7-dihydroxy-6-methyl-N-(2-methylpyridin-3-yl)-10-oxo-7-phenyl-4b,5,6,7,8,8a,9,10-octahydrophenanthrene-2-carboxamide]
ED50 ([1]; 672 h, read-out: TNFα Suppression (ED50 dose)): 0.029 mg/kg
TNFα Suppression (ED80 dose) [1]: 0.11
ED50 at 28 days ([2]; female, Swiss Webster, read-out: Insulin (ED50 dose)): 1.28 mg/kg
Insulin (ED80 dose) [2]: 5.89
inhibition at 0.000137174 µM ([3]; Homo sapiens, 0.137174 nM, mean of donors): -3.93%
inhibition at 0.000411523 µM ([3]; Homo sapiens, 0.411523 nM, mean of donors): 15.6%
inhibition at 0.00123457 µM ([3]; Homo sapiens, 1.234568 nM, mean of donors): 18.4%
inhibition at 0.0037037 µM ([3]; Homo sapiens, 3.703704 nM, mean of donors): 26.9%
inhibition at 0.0111111 µM ([3]; Homo sapiens, 11.11111 nM, mean of donors): 51%
inhibition at 0.0333333 µM ([3]; Homo sapiens, 33.33333 nM, mean of donors): 66.2%
inhibition at 0.1 µM ([3]; Homo sapiens, 100 nM, mean of donors): 72.5%
inhibition at 0.3 µM ([3]; Homo sapiens, 300 nM, mean of donors): 72.9%
level of inhibition of IFN ([3]; ex vivo LPS-stimulated human whole blood, extent of inhibition, concentration not given): 73%
